Assay results: ChEMBL document CHEMBL1201862, “PubChem BioAssay data set” (2004)
Calls of active or inactive are those of the source.

How the values were obtained:
HeLa = test: HeLa cell cytotoxicity, dose response, cytotoxicity control, 24 h, cherry-picked samples (AID 504726); assay type: functional, cell-based; conditions: Homo sapiens;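 also: potency for cytotoxicity as loss of luminescence signal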
Genome polyprotein = Genome polyprotein (dengue virus type 2, UniProt P29990); test: Dengue-2 NS5 methyltransferase inhibitors, primary screen, biochemical, confirmation dose response (AID 588689); assay type: functional
[1] = target: Matrix metalloproteinase-14 (Homo sapiens, UniProt P50281); test: Dose Response confirmation of uHTS hits for a small molecule inhibitors of MT1-MMP activation in a fluorescence assay set 1.; assay type: functional
[2] = target: T1, Tyrosine-protein phosphatase non-receptor type 7 (Homo sapiens, UniProt P35236); test: HTS HePTP Fluorescent Assay using OMFP substrate for In Vitro dose response studies. [Related pubchem assays (depositor defined):AID1059, AID1077, AID1784, AID2068, AID2085, AID435032, AID521]; assay type: functional
T1 sequence (P35236 whole entry): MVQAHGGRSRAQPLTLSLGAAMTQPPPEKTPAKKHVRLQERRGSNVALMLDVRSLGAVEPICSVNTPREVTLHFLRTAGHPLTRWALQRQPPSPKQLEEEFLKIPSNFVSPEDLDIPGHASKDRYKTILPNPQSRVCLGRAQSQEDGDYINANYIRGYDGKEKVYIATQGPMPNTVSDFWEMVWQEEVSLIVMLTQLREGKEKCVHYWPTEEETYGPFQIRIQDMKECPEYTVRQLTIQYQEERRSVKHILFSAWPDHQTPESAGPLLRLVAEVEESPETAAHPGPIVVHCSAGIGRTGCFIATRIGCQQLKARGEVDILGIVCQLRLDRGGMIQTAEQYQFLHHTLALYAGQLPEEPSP

[3] = target: T2, Dual specificity protein phosphatase 6 (Rattus norvegicus, UniProt Q64346); test: MKP-3 phosphatase inhibitors, primary screen, biochemical, rat enzyme, in vitro (AID 425)
T2 sequence (Q64346 whole entry): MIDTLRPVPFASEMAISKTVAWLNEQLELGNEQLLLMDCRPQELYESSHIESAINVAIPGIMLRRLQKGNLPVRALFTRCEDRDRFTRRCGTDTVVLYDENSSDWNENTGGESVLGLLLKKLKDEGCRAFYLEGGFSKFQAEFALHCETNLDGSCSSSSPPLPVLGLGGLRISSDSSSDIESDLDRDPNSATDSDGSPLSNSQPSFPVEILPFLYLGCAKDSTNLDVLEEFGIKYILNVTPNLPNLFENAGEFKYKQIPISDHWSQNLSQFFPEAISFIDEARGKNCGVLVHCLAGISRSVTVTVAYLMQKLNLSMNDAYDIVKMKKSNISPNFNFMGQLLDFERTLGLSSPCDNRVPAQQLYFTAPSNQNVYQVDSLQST

[4] = Shn3 3'UTR reporter inhibitors, dose response, cell-based, Clone20 osteoblasts, firefly luciferase, cherry-picked (AID 624132); assay type: functional;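 also: firefly luciferase luminescence from reporter carrying the Shn3 3'UTR in osteoblasts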

Chain of Genome polyprotein (P29990 2492-3391 limits assumed): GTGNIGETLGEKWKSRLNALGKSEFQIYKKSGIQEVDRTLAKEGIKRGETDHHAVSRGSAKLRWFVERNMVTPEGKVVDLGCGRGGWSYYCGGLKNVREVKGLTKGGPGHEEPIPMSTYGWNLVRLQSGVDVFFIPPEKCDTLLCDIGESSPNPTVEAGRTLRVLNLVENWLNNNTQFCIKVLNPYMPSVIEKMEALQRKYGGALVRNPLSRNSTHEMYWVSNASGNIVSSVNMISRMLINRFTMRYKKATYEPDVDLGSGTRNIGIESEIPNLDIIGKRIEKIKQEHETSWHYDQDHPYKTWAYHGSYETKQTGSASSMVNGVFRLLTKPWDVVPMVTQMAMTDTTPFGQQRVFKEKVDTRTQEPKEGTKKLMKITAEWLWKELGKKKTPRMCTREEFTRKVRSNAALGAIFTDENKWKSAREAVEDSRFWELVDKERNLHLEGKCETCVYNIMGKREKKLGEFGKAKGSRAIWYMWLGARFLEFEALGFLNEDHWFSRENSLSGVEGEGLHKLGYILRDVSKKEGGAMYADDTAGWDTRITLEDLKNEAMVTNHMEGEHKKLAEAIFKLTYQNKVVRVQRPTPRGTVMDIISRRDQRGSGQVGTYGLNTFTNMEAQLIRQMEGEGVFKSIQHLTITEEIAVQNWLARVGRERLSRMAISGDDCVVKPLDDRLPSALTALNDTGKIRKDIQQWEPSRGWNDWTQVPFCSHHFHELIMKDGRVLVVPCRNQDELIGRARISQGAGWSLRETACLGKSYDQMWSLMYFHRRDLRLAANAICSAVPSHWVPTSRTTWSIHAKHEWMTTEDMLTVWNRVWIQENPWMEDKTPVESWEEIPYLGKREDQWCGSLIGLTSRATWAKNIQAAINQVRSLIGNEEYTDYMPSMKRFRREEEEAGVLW

Q: Which AC50 (HeLa) does the source give for CCN(CC)CCN1C(=O)c2cccc3cc(N)cc(c23)C1=O here?
A: 109 µM (active)

Q: Which results are given for O=S(=O)(O)c1cc(Cl)cc(N=Nc2ccc(O)cc2O)c1O?
A: IC50 (Genome polyprotein): 58.3 µM (active); IC50 [1]: 1.41 µM (active)

Q: For O=C(O)c1cccc(-n2cccc2/C=C2/NC(=O)N(c3ccc(Cl)cc3)C2=O)c1, which IC50 [2] is on record?
A: 6.06 µM (active)

Q: And the IC50 [3]?
A: 3.28 µM (active)

Q: Which AC50 [4] does the source give for C=C1C(=O)O[C@@H]2C[C@@H](C)[C@@H]3C=CC(=O)[C@@]3(C)[C@@H](OC(=O)CC(=O)O[C@H]3[C@@H]4C(=C)C(=O)O[C@@H]4C[C@@H](C)[C@@H]4C=CC(=O)[C@]43C)[C@H]12 here?
A: 0.292 µM (active)
